From ChEMBL document CHEMBL1132242, “Stereoselective characterization of the 1,4-dihydropyridine binding site at L-type calcium channels in the resting state and the opened/inactivated state” (J Med Chem, 1999) come the findings set out here.

The target in data set [1] is T1, Voltage-gated L-type calcium channel (Homo sapiens, UniProt Q13936+Q13698+Q01668+O60840). Briefly: Evaluated for the free energies of binding (delta G) (in the resting state (rs) of voltage-gated L-type [Ca2+] channel (VGCCs)). The format is protein assay.
Data set [2] has as its target T1, Voltage-gated L-type calcium channel. The data set is described as follows: Free energy of binding (delta G) for inactivated state (is) of voltage-gated L-type [Ca2+] channel(VGCCs). The format is protein assay.
Data set [3] shares this target. The data set is described as follows: Difference in free energies of binding (delta G) in the Resting state (rs) and inactivated state (is) of voltage-gated L-type [Ca2+] channel(VGCCs). The format is protein assay.
Data set [4] has the same target. Briefly: Free energies of binding(delta G)in inactivated state (is) of voltage-gated L-type [Ca2+] channel(VGCCs). The format is protein assay.
Data set [5] shares this target. Briefly: Free energies of binding (delta G) in the Resting state (rs) of voltage-gated L-type [Ca2+] channel(VGCCs). The format is protein assay.

Several values for one entry are separate records, joined by “and”; a condition that tells them apart may be missing. Equal values may be shown once.

In the case of `COC(=O)C1=C(C)N=C(C)/C(=C(\O)OC)C1c1cccc(OC)c1` (stereo in doubt; form 1), the “Delta Gsolv” value was -9.847 kcal/mol. In addition, in data set [1], the Binding energy was -9.916 kcal/M.
For the compound `COC(=O)C1=C(C)NC(C)=C(C(=O)OC)C1c1ccccc1`, the “Delta Gsolv” value is -8.706 kcal/mol and -9.458 kcal/mol. In data set [2], the Binding energy is -10.387 kcal/M. In addition, the Binding energy in data set [1] is -8.58 kcal/M and -10.707 kcal/M.
On to `COC(=O)C1=C(C)N=C(C)/C(=C(\O)OC)C1c1cccc(OC)c1` (stereo in doubt; form 2), for which the “Delta Gsolv” value is -9.756 kcal/mol. Moreover, in data set [2], the Binding energy was -8.461 kcal/M. In addition, the Binding energy in data set [1] was -7.819 kcal/M.
Take `CC1=C([N+](=O)[O-])C(c2ccccc2C(F)(F)F)C([N+](=O)[O-])=C(C)N1`: the “Delta Gsolv” value was -17.275 kcal/mol. Moreover, in data set [3], the Binding energy is -0.85 kcal/M. Besides, in data set [2], the Binding energy was -9.11 kcal/M. Also, the Binding energy in data set [1] is -8.256 kcal/M.
With `COC(=O)C1=C(C)N=C(C)/C(=C(\O)OC)C1c1cccc(C#N)c1` (stereo in doubt; form 1), the “Delta Gsolv” value was -10.743 kcal/mol. For the same compound, the Binding energy in data set [2] was -12.108 kcal/M. For the same compound, the Binding energy in data set [1] was -9.71 kcal/M.
`CO/C(O)=C1\C(C)=NC(C)=C([N+](=O)[O-])C1c1ccccc1OC(F)F` (stereo not drawn): the “Delta Gsolv” value is -14.543 kcal/mol. The Binding energy in data set [2] was -10.564 kcal/M. The Binding energy in data set [1] is -9.26 kcal/M.
As for `CC1=CC(c2ccccc2C(F)(F)F)C([N+](=O)[O-])=C(C)N1` (stereo in doubt; form 2), the “Delta Gsolv” value was -10.33 kcal/mol. In addition, the Binding energy in data set [3] was -0.38 kcal/M. Besides, the Binding energy in data set [2] is -7.74 kcal/M. Moreover, the Binding energy in data set [1] was -7.36 kcal/mol.
For `COC(=O)C1=C(C)N=C(C)/C(=C(\O)OC)C1c1ccccc1OC` (stereo not drawn), the “Delta Gsolv” value is -10.468 kcal/mol. For the same compound, in data set [1], the Binding energy is -10.735 kcal/M.
For the compound `COC(=O)C1=C(C)N=C(C)/C(=C(\O)OC)C1c1ccccc1Cl` (stereo not drawn), the “Delta Gsolv” value was -9.26 kcal/mol. Moreover, in data set [1], the Binding energy is -13.34 kcal/M.
With `COC(=O)C1=C(C)N=C(C)/C(=C(\O)OC)C1c1ccc(Cl)cc1` (stereo in doubt; form 2), the “Delta Gsolv” value was -8.79 kcal/mol. Besides, in data set [1], the Binding energy is -7.666 kcal/M.
In the case of `COC(=O)C1=C(C)N=C(C)/C(=C(\O)OC)C1c1ccccc1F` (stereo not drawn), the “Delta Gsolv” value was -9.804 kcal/mol. The Binding energy in data set [1] was -11.512 kcal/M.
Taken in the same sequence, the figures for `COC(=O)C1=C(C)N=C(C)/C(=C(\O)OC)C1c1ccccc1C#N` (stereo not drawn) were -9.74 kcal/mol and -12.522 kcal/M.
Taken in the same sequence, the figures for `COC(=O)C1=C(C)N=C(C)/C(=C(\O)OC)C1c1c(F)c(F)c(F)c(F)c1F` (stereo not drawn) were -9.442 kcal/mol and -14.145 kcal/M.
Regarding `COC(=O)C1=C(C)N=C(C)/C(=C(\O)OC)C1c1ccc(F)cc1` (stereo not drawn), the “Delta Gsolv” value was -9.427 kcal/mol. For the same compound, the Binding energy in data set [1] was -10.175 kcal/M.
In the case of `COC(=O)C1=C(C)N=C(C)/C(=C(\O)OC)C1c1ccc(Cl)cc1` (stereo in doubt; form 1), the “Delta Gsolv” value was -9.2 kcal/mol. For the same compound, the Binding energy in data set [2] is -8.964 kcal/M. Further, the Binding energy in data set [1] was -8.209 kcal/M.
With `COC(=O)C1=C(C)N=C(C)/C(=C(\O)OC)C1c1cccc(C)c1` (stereo not drawn), the “Delta Gsolv” value is -8.407 kcal/mol. For the same compound, the Binding energy in data set [1] is -9.93 kcal/M.
Regarding `CC1=CC(c2ccccc2C(F)(F)F)C([N+](=O)[O-])=C(C)N1` (stereo in doubt; form 1), the “Delta Gsolv” value was -10.313 kcal/mol. Also, in data set [3], the Binding energy is -0.66 kcal/M. Moreover, the Binding energy in data set [4] was -7.634 kcal/M. Also, the Binding energy in data set [1] is -6.967 kcal/M.
In the case of `COC(=O)C1=C(C)N=C(C)/C(=C(\O)OC)C1c1ccccc1C` (stereo not drawn), the “Delta Gsolv” value was -7.993 kcal/mol. Further, the Binding energy in data set [1] was -11.88 kcal/M.
For the compound `COC(=O)C1=C(C)NC(C)=C([N+](=O)[O-])C1c1ccccc1C(F)(F)F` (stereo in doubt; form 1), the “Delta Gsolv” value is -13.929 kcal/mol. For the same compound, in data set [3], the Binding energy is -1.5 kcal/M. Moreover, the Binding energy in data set [2] is -10.296 kcal/M. The Binding energy in data set [1] is -8.8 kcal/M.
`COC(=O)C1=C(C)NC(C)=C([N+](=O)[O-])C1c1ccccc1OC(F)F` (stereo not drawn): the “Delta Gsolv” value is -14.696 kcal/mol. For the same compound, the Binding energy in data set [2] is -10.474 kcal/M. Besides, the Binding energy in data set [1] is -9.571 kcal/M.
With `COC(=O)C1=C(C)N=C(C)/C(=C(\O)OC)C1c1cccc(C#N)c1` (stereo in doubt; form 2), the “Delta Gsolv” value was -10.65 kcal/mol. The Binding energy in data set [1] was -11.84 kcal/M.
Regarding `COC(=O)C1=C(C)NC(C)=C([N+](=O)[O-])C1c1ccccc1C(F)(F)F` (stereo in doubt; form 2), the “Delta Gsolv” value was -14.15 kcal/mol. Further, the Binding energy in data set [3] is -0.94 kcal/M. The Binding energy in data set [2] is -10.641 kcal/M. Besides, the Binding energy in data set [1] is -9.7 kcal/M.
Consider `CC1=C([N+](=O)[O-])C(c2ccccc2OC(F)F)C([N+](=O)[O-])=C(C)N1`, for which the “Delta Gsolv” value was -16.994 kcal/mol. Further, the Binding energy in data set [2] was -8.66 kcal/M. Moreover, the Binding energy in data set [1] is -7.82 kcal/M.
Regarding `COC(=O)C1=C(C)N=C(C)/C(=C(\O)OC)C1c1ccc(C)cc1` (stereo not drawn), the “Delta Gsolv” value is -8.19 kcal/mol. The Binding energy in data set [1] is -9.79 kcal/M.
For the compound `COC(=O)C1=C(C)N=C(C)/C(=C(/O)OC)C1c1cccc(Cl)c1` (stereo not drawn), the “Delta Gsolv” value is -8.94 kcal/mol. In data set [1], the Binding energy was -12.685 kcal/M.
In the case of `CC1=CC(c2ccccc2OC(F)F)C([N+](=O)[O-])=C(C)N1` (stereo in doubt; form 1), the “Delta Gsolv” value was -11.269 kcal/mol. In addition, in data set [2], the Binding energy is -7.783 kcal/M. The Binding energy in data set [1] was -7.422 kcal/M.
In the same order, the values of `CC1=CC(c2ccccc2OC(F)F)C([N+](=O)[O-])=C(C)N1` (stereo in doubt; form 2) are -10.096 kcal/mol, -8.28 kcal/M and -7.86 kcal/M.
`COC(=O)C1=C(C)NC(C)=C(C(=O)OC)C1c1ccccc1[N+](=O)[O-]` [NIFEDIPINE]: the “Delta Gsolv” value is -14.117 kcal/mol and -14.198 kcal/mol. For the same compound, the Binding energy in data set [5] is -10.502 kcal/M. Also, in data set [2], the Binding energy is -13.184 kcal/M. Besides, the Binding energy in data set [1] is -12.385 kcal/M.
Regarding `COC(=O)C1=C(C)N=C(C)/C(=C(\O)OC)C1c1ccccc1I` (stereo not drawn), the “Delta Gsolv” value was -9.18 kcal/mol. Also, the Binding energy in data set [1] is -14.731 kcal/M.
Taken in the same sequence, the figures for `COC(=O)C1=C(C)N=C(C)/C(=C(\O)OC)C1c1ccccc1Br` (stereo not drawn) were -9.256 kcal/mol and -14.308 kcal/M.
Taken in the same sequence, the figures for `COC(=O)C1=C(C)N=C(C)/C(=C(\O)OC)C1c1cccc(F)c1` (stereo not drawn) were -9.56 kcal/mol and -11.58 kcal/M.
